Source: patent publication US20250230165A1, “HETEROCYCLIC COMPOUNDS FOR USE IN THE TREATMENT OF CANCER” (ARTIOS PHARMA LIMITED, priority 2021, published 2025)

These molecules were tested against T1, Human Polθ polymerase domain (aa1820-2590) (Homo sapiens, UniProt O75417) (assay: Polθ Polymerase Domain Kinact/KI Assay (PicoGreen)). Details: 0.8 nM Polθ, 100 nM DNA substrate, kobs vs [I] fit for 2-step covalent inhibitor.
T1 construct: Human Polθ polymerase domain (aa1820-2590) was expressed in E. coli; made in house; host or cells: E. coli
T1 sequence (O75417 1820-2590): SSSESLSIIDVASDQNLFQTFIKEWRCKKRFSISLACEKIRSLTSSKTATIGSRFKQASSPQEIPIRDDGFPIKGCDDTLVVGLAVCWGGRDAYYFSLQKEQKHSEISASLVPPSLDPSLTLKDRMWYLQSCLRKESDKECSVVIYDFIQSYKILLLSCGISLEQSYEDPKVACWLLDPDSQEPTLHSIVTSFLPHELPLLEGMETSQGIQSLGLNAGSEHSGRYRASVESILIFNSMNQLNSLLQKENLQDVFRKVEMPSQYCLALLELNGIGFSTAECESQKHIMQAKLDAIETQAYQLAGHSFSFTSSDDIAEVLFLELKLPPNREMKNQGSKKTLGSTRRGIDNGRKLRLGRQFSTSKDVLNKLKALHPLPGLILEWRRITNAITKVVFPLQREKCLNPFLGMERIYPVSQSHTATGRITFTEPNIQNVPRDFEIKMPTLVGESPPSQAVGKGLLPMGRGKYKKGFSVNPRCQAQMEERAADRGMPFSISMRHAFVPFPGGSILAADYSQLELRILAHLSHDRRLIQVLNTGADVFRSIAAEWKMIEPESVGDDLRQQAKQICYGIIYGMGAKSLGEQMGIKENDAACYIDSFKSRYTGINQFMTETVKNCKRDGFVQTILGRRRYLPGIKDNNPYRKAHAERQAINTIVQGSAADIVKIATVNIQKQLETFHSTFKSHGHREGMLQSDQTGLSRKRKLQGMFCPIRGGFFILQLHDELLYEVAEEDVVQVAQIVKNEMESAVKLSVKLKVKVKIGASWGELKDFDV
Type: biochemical
In short: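 Kinact and KI derive from fitting kobs versus [I], where kobs were fitted from EDTA-stopped PicoGreen time courses (up to 60 min) in Tris pH 7.5 buffer with 1% DMSO, 0.8 nM enzyme, 100 nM DNA and […].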

Compound | Kinact/Kl [M⁻¹ s⁻¹]
C=CC(=O)N1CC(N2CC[C@@H](CN3C[C@H]4CC(=O)N(c5cc(C(F)(F)F)cc(C)n5)[C@@H]4C(=O)N(C)c4cccc(F)c43)C2)C1 [Example 214, (3aR,11aS)-5-(((R)-1-(1-acryloylazetidin-3-yl)pyrrolidin-3-yl)methyl)-6-fluoro-10-methyl-1-(6-methyl-4-(trifluoromethyl)pyridin-2-yl)-1,3a,4,5,10,11a-hexahydro-2H-benzo[b]pyrrolo [2,3-f][1,4] diazocine-2,11 (3H)-dione] | 320000
C=CC(=O)N1CC(n2cnc(CN3C[C@H]4CC(=O)N(c5cc(C(F)(F)F)cc(C)n5)[C@@H]4C(=O)N(C)c4cc(F)ccc43)c2)C1 [Example 40, (3aR,11aS)-5-((1-(1-acryloylazetidin-3-yl)-1H-imidazol-4-yl)methyl)-8-fluoro-10-methyl-1-(6-methyl-4-(trifluoromethyl)pyridin-2-yl)-1,3a,4,5,10,11a-hexahydro-2H-benzo[b]pyrrolo[2,3-f][1,4]diaocine-2,11(3H)-dione] | 850000
C=C(CN(C)C)C(=O)N1CCC(OCCN2C[C@H]3CC(=O)N(c4cc(C(F)(F)F)cc(C)n4)[C@@H]3C(=O)N(C)c3cccc(Cl)c32)CC1 [Example 157, (3aR,11aS)-6-chloro-5-(2-((1-(2-((dimethylamino)methyl)acryloyl)piperidin-4-yl)oxy)ethyl)-10-methyl-1-(6-methyl-4-(trifluoromethyl)pyridin-2-yl)-1,3a,4,5,10,11a-hexahydro-2H-benzo[b]pyrrolo[2,3-f][1,4]diazocine-2,11(3H)-dione] | 1.57e+06
C=CC(=O)N1Cc2nc(CN3C[C@H]4CC(=O)N(c5cc(C(F)(F)F)cc(C)n5)[C@@H]4C(=O)N(C)c4cccc(Cl)c43)cn2C[C@H]1C(F)(F)F (racemic) [Example 293a, (3aR,11aS)-5-(((S/R)-7-acryloyl-6-(trifluoromethyl)-5,6,7,8-tetrahydroimidazo[1,2-a]pyrazin-2-yl)methyl)-6-chloro-10-methyl-1-(6-methyl-4-(trifluoromethyl)pyridin-2-yl)-1,3a,4,5,10,11a-hexahydro-2H-benzo[b]pyrrolo[2,3-f][1,4]diazocine-2,11(3H)-dione] | 880000
C=CC(=O)N1CC2(CN(CCN3C[C@H]4CC(=O)N(c5cc(C(F)(F)F)cc(C)n5)[C@@H]4C(=O)N(C)c4cccc(F)c43)CCN2CC)C1 [Example 35, (3aR,11aS)-5-(2-(2-acryloyl-5-ethyl-2,5,8-triazaspiro[3.5]nonan-8-yl)ethyl)-6-fluoro-10-methyl-1-(6-methyl-4-(trifluoromethyl)pyridin-2-yl)-1,3a,4,5,10,11a-hexahydro-2H-benzo[b]pyrrolo[2,3-f][1,4]diazocine-2,11(3H)-dione] | 870000
C=CC(=O)N1Cc2cc(CN3C[C@H]4CC(=O)N(c5cc(C(F)(F)F)cc(C)n5)[C@@H]4C(=O)N(C)c4cccc(C)c43)cnc2[C@H]1CO (racemic) [Example 233, (3aR,11aS)-5-(((S/R)-6-acryloyl-7-(hydroxymethyl)-6,7-dihydro-5H-pyrrolo[3,4-b]pyridin-3-yl)methyl)-6,10-dimethyl-1-(6-methyl-4-(trifluoromethyl)pyridin-2-yl)-1,3a,4,5,10,11a-hexahydro-2H-benzo[b]pyrrolo[2,3-f][1,4]diazocine-2,11(3H)-dione] | 2.99e+06
C=CC(=O)N1C[C@@H]2CN(CCN3C[C@H]4CC(=O)N(c5cc(C(F)(F)F)cc(C)n5)[C@@H]4C(=O)N(C)c4cccc(F)c43)CCN2C[C@@H]1C (single isomer, unassigned) [Example 9] | 600000
C=CC(=O)N1CC(n2ccc(CN3C[C@H]4CC(=O)N(c5cc(C(F)(F)F)cc(C)n5)[C@@H]4C(=O)N(C)c4cc(F)ccc43)n2)C1 [Example 41, (3aR,11aS)-5-((1-(1-acryloylazetidin-3-yl)-1H-pyrazol-3-yl)methyl)-8-fluoro-10-methyl-1-(6-methyl-4-(trifluoromethyl)pyridin-2-yl)-1,3a,4,5,10,11a-hexahydro-2H-benzo[b]pyrrolo[2,3-f][1,4]diazocine-2,11(3H)-dione] | 1.38e+06
C=CC(=O)N1CC(N2CCCN(CCN3C[C@H]4CC(=O)N(c5cc(C(F)(F)F)cc(C)n5)[C@@H]4C(=O)N(C)c4cccc(F)c43)CC2)C1 [Example 3, (3aR,11aS)-5-(2-(4-(1-Acryloylazetidin-3-yl)-1,4-diazepan-1-yl)ethyl)-6-fluoro-10-methyl-1-(6-methyl-4-(trifluoromethyl)pyridin-2-yl)-1,3a,4,5,10,11a-hexahydro-2H-benzo[b]pyrrolo[2,3-f][1,4]diazocine-2,11(3H)-dione] | 540000
C=CC(=O)N1Cc2ccc(CN3C[C@H]4CC(=O)N(c5cc(C(F)(F)F)cc(C)n5)[C@@H]4C(=O)N(C)c4cccc(Cl)c43)cc2[C@@H]1CC#N (racemic) [Example 288b, 2-((S/R)-2-acryloyl-6-(((3aR,11aS)-6-chloro-10-methyl-1-(6-methyl-4-(trifluoromethyl)pyridin-2-yl)-2,11-dioxo-1,2,3,3a,4,10,11,11a-octahydro-5H-benzo[b]pyrrolo[2,3-f][1,4]diazocin-5-yl)methyl)isoindolin-1-yl)acetonitrile] | 500000

The remaining lines, values ahead:

Kinact/Kl [M⁻¹ s⁻¹] | Compound
3.72e+06 | C=C(CN(C)C)C(=O)N1CCC(CCCN2C[C@H]3CC(=O)N(c4cc(C(F)(F)F)cc(C)n4)[C@@H]3C(=O)N(C)c3cccc(Cl)c32)CC1 [Example 158, (3aR,11aS)-6-chloro-5-(3-(1-(2-((dimethylamino)methyl)acryloyl)piperidin-4-yl)propyl)-10-methyl-1-(6-methyl-4-(trifluoromethyl)pyridin-2-yl)-1,3a,4,5,10,11a-hexahydro-2H-benzo[b]pyrrolo[2,3-f][1,4]diazocine-2,11(3H)-dione]
810000 | C/C=C(\CN(C)C)C(=O)N1CC(OCCCN2C[C@H]3CC(=O)N(c4cc(C(F)(F)F)cc(C)n4)[C@@H]3C(=O)N(C)c3cccc(F)c32)C1 [Example 80, (3aR,11aS)-5-(3-((1-((E)-2-((dimethylamino)methyl)but-2-enoyl)azetidin-3-yl)oxy)propyl)-6-fluoro-10-methyl-1-(6-methyl-4-(trifluoromethyl)pyridin-2-yl)-1,3a,4,5,10,11a-hexahydro-2H-benzo[b]pyrrolo[2,3-f][1,4]diazocine-2,11(3H)-dione]
1.42e+06 | Cc1cc(C(F)(F)F)cc(N2C(=O)C[C@@H]3CN(CC(F)CCCNC(=O)/C=C/CN(C)C)c4c(Cl)cccc4N(C)C(=O)[C@H]32)n1 (stereo partly drawn) [Example 253, (E)-N-(5-((3aR,11aS)-6-chloro-10-methyl-1-(6-methyl-4-(trifluoromethyl)pyridin-2-yl)-2,11-dioxo-1,2,3,3a,4,10,11,11a-octahydro-5H-benzo[b]pyrrolo[2,3-f][1,4]diazocin-5-yl)-4-fluoropentyl)-4-(dimethylamino)but-2-enamide]
620000 | Cc1cc(C(F)(F)F)cc(N2C(=O)C[C@@H]3CN(CCCCCNC(=O)/C=C/CN(C)C)c4c(C)cccc4N(C)C(=O)[C@H]32)n1 [Example 83, (E)-N-(5-((3aR,11aS)-6,10-dimethyl-1-(6-methyl-4-(trifluoromethyl)pyridin-2-yl)-2,11-dioxo-1,2,3,3a,4,10,11,11a-octahydro-5H-benzo[b]pyrrolo[2,3-f][1,4]diazocin-5-yl)pentyl)-4-(dimethylamino)but-2-enamide]
1.33e+06 | C=C(CN(C)C)C(=O)NC12CC(CN3C[C@H]4CC(=O)N(c5cc(C(F)(F)F)cc(C)n5)[C@@H]4C(=O)N(C)c4cccc(C)c43)(C1)C2 [Example 184, N-(3-(((3aR,11aS)-6,10-dimethyl-1-(6-methyl-4-(trifluoromethyl)-pyridin-2-yl)-2,11-dioxo-1,2,3,3a,4, 10,11,11a-octa-hydro-5H-benzo [b]pyrrolo[2,3-f] [1,4]diazocin-5-yl)methyl)bicyclo [1.1.1]pentan-1-yl)-2-((dimethyl-amino)methyl)-acrylamide]
420000 | Cc1cc(C(F)(F)F)cc(N2C(=O)C[C@@H]3CN(Cc4ccc(NC(=O)/C=C/CN(C)C)cc4F)c4c(Cl)cccc4N(C)C(=O)[C@H]32)n1 [Example 246, (E)-N-(4-(((3aR,11aS)-6-chloro-10-methyl-1-(6-methyl-4-(trifluoromethyl)pyridin-2-yl)-2,11-dioxo-1,2,3,3a,4,10,11,11a-octahydro-5H-benzo[b]pyrrolo[2,3-f][1,4]diazocin-5-yl)methyl)-3-fluorophenyl)-4-(dimethylamino)but-2-enamide]
